The target of assay [1] is T1, MT1-MMP sandwich EIA (solid-phase antibody 222-2D12, labeled antibody 222-1D8) (Homo sapiens, UniProt P50281).
T1 construct: 488 amino acid residues of Δ MT1-MMP (G^48 to G^53) which lacks the signal peptide and part of the propeptide region; made in house; host or cells: E. coli
Put plainly: Specificity test: cross reactivity on MT1-MMP sandwich EIA. Particulars: concentration 1 μg/mL; blank 0.027. It counts as binding. As to the method:
Monoclonal antibodies (e.g., 333-2D12 (IgG)) were dissolved in 0.1 M phosphate buffer, pH 7.0 to a concentration of 25 μg/mL. The monoclonal antibody solution was added to each well of a 96-well microwell (Maxisorp; Nunc-Immuno Module) at 100 μL per well and allowed to stand at 4° C. for 24 hrs. […] The solid-phase antibodies were preserved at 4° C.
Standard antigens or samples to be assayed were dispensed into a 96-well vinyl plate at 25 μL each. To each well was added a dilution buffer in aliquots of 100 μL, followed by mixing. An aliquot (100 μL) of the resultant mixture was taken out, dispensed into an antibody-solid phased plate from which a blocking solution was removed by washing. The plate was then allowed to stand at 4° C. for 16 hours.
[…] antibody 222-1D8 (Fab′-HRP) was diluted with a blocking solution to a concentration of 0.4 μg/mL. The reaction solution was removed from the antibody-solid phased plate where the primary reaction was completed. The plate was washed with a washing liquid three times and an aliquot (100 μL) of the labeled antibody solution was added to each well. The plate was allowed to stand at room temperature for 1 hour.
After completion of the reaction, the labeled antibody solution was removed. The plate was then washed with a washing liquid three times, and a TMB solution (CALBIOCHEM) was added to each well at 100 μL. The mixture was allowed to react at room temperature for 20 minute. The reaction was stopped with the addition of 2 N sulfuric acid at 100 μL per well. The reaction mixture was measured for A450 with a microplate reader (MPR-A4; Tosoh).
Each of MMP-1, -2, -3, -4, -7, -8, -9, -13, -19 and -20 was prepared to give a concentration of 1 μg/mL, and subjected to MT1-MMP sandwich EIA. A450 was measured. When MT1-MMP was subjected to sandwich EIA at 0.16 μg/mL, the absorbance was 2.206. However, when the above MMPs were subjected, their absorbances were only an extent of 0.024 to 0.071. Accordingly, it has been verified that MT1-MMP sandwich EIA is specifically reactive with MT1-MMP.

For assay [2], the system named is SW 837 (rectal adenocarcinoma). Put plainly: MT1-MMP sandwich EIA of cultured cell line with Con A. Type of assay: cell-based, Human. Particulars: SW 837, Con A-containing serum-free medium 48 hours. The procedure: (§1) Searches for Human MT1-MMP-producing culture cell lines were carried out by means of MT1-MMP sandwich EIA. With regard to the cell lines, there were used Burkitt's lymphoma (Daudi, Namalwa, Raji), acute lymphoblastic leukemia (T-cells) (MOLT-4), chronic myelogenous leukemia (K-562), promyelocytic leukemia (HL-60), fibrosarcoma (HT-1080), breast cancer (MDA-MB-231, SK-BR-3, MCF 7), lung cancer (A 549), rectal adenocarcinoma (SW 837), osteosarcoma ([…]), lingual squamous cell carcinoma (SSC-25), uterocervical cancer (HeLa), cervical epidermoid cancer (CaSki), prostatic cancer (PC-3) and malignant melanoma (A-375) cells. Each of the cancer cell lines was incubated in a plate of 10 cm diameter until being confluent, the medium was exchanged with serum-free medium or Con A-containing serum-free medium and, after 48 hours, the culture supernatant and the cells were recovered. The cells were ultrasonically disrupted in 0.5 mL of dilution buffer and centrifuged. The resulting supernatant was subjected to EIA as a cell extract fraction. The culture supernatant was subjected to EIA as it was.

A further assay deals with HT-1080 (fibrosarcoma). The description is as above. Type of assay: cell-based, Human. Particulars: HT-1080, Con A-containing serum-free medium 48 hours. The procedure:
as §1

Assay [3] concerns SSC-25 (lingual squamous cell carcinoma). The assay is described as above. It counts as cell-based, Human. Particulars: SSC-25, Con A-containing serum-free medium 48 hours. As to the method:
as §1

The subject of another assay is MG-63 (osteosarcoma). The description is as above. Particulars: MG-63, Con A-containing serum-free medium 48 hours. Type of assay: cell-based, Human. As to the method:
as §1

Assay [4] relates to CaSki (cervical epidermoid cancer). The assay is described as above. It counts as cell-based, Human. Particulars: Con A-containing serum-free medium 48 hours. The procedure:
as §1

The test system of assay [5] is MDA-MB-231 (breast cancer). The assay is described as above. It counts as cell-based, Human. Particulars: MDA-MB-231, Con A-containing serum-free medium 48 hours. The procedure: as §1

“MMP-7: matrix metalloproteinase subjected to MT1-MMP sandwich EIA for cross reactivity”: in assay [1], the A450 is 0.026.

Regarding concanavalin A [Con A], the “MT1-MMP in Culture Supernatant, +Con A” value is recorded as 14.2 in assay [2] (−Con A 1.8); 80.3 in the assay with HT-1080 (fibrosarcoma) (−Con A 10.1); 43.1 in assay [3] (−Con A 2.8); 20.3 in the assay with MG-63 (osteosarcoma) (−Con A 1.6); 25.1 in assay [4] (−Con A 1.7); 48.8 in assay [5] (−Con A 7.6). Besides, the “MT1-MMP in Cell Extract Fraction, +Con A” value in assay [2] (−Con A 21.5) turned out to be 30.7; with HT-1080 (fibrosarcoma) (−Con A 45.9), 42.6; in assay [3] (−Con A 5.9), 19.1; in the assay on MG-63 (osteosarcoma) (−Con A 0.7), 0.0; in assay [4] (−Con A 9.0) it was 9.5; in assay [5] (−Con A 42.8), 85.0.

The substance “MMP-3: matrix metalloproteinase subjected to MT1-MMP sandwich EIA for cross reactivity” returned an A450 in assay [1] of 0.027.

The substance “MMP-8: matrix metalloproteinase subjected to MT1-MMP sandwich EIA for cross reactivity” returned an A450 in assay [1] of 0.028.
